IC50 data for 7 compounds are collected here from ChEMBL document CHEMBL1255547, “Preparation and characterization of novel 4-bromo-3,4-dimethyl-1-phenyl-2-phospholene 1-oxide and the analogous phosphorus heterocycles or phospha sugars” (Bioorg Med Chem Lett, 2010).

In the assay the test system is U-937. The assay is described as follows: Cytotoxicity against human U937 cells after 48 hrs by MTT assat. The assay is classed as functional, cell-based. The following applies: U-937, 48 h.
With `O=P1(c2ccccc2)C=CCC1` (configuration not stated), the IC50 was greater than 1000 µM. With `CC1=CP(=O)(c2ccccc2)CC1` (configuration not stated), the IC50 amounted to 900 µM.

For the compound `CC1=CP(=O)(c2ccccc2)CC1C` (configuration not stated), 350 µM corresponded to half-maximal inhibition (IC50). In turn, `O=P1(c2ccccc2)C=CC(Br)C1` (configuration not stated) yielded an IC50 greater than 1000 µM.

The compound `CC1=CP(=O)(c2ccccc2)CC1Br` (configuration not stated) returned an IC50 of 87 µM. Turning to `CC1=CP(=O)(c2ccccc2)CC1(C)Br` (configuration not stated), it took 5.6 µM to reach half-maximal inhibition (IC50). The result for `CCC1=CP(=O)(c2ccccc2)CC1Br` (configuration not stated) reads greater than 1000 µM.

One may read the IC50 as the concentration that gives 50% inhibition. A higher IC50 goes with weaker potency.
